Measurements from patent publication US10894817B2, “Fatty acid modified urocortin-2 analogs for the treatment of diabetes and chronic kidney disease” (priority 2016, dated 2021).
Starred links: 1 amine or outer side, 2 acyl side, 3 side chain; linkers in the order of their positions; H or OH if unused. Non-standard residues stand in square brackets, D forms with d. Residues, ends and D or L forms follow the SMILES beside them. Groups on a side chain read outwards from the residue. *: point of attachment. C20 diacid = O=C(O)CCCCCCCCCCCCCCCCCCC(=O)*; γGlu = O=C(O)[C@H](CCC(=O)[*:2])N[*:1]; NMeI = CC[C@H](C)[C@H](NC)C(=O)O; AEEA = NCCOCCOCC(=O)O

Assays:
[1] = biological target: T1, human CRHR1 (Homo sapiens, UniProt P34998); assay: human CRHR1 cell-based cAMP assay (Y79 cells); settings: Y79 cells with endogenous human CRHR1, mean ± SEM of runs, read-out: hCRHR1 Average EC50
T1 construct: which expresses endogenous human CRHR1; host or cells: Y79 human retinoblastoma cells
T1 sequence (P34998 24-415): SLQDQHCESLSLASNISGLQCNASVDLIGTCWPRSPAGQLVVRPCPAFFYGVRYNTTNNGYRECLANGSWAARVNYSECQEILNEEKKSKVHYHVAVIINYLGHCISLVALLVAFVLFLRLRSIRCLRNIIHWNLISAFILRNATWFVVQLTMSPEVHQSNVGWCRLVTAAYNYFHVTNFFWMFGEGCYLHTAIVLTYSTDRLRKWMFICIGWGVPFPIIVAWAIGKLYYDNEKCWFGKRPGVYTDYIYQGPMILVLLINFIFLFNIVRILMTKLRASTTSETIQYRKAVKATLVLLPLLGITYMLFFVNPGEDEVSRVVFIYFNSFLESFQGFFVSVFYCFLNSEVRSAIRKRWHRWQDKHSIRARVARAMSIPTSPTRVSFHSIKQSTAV
Description: CRHR agonistic activity is measured in a cell-based cAMP assay. Serial dilutions of the test peptides are made in assay buffer containing Hank's Balanced Salt Solution (HBSS, without phenol red) supplemented with 20 mM HEPES and 0.05% lactalbumin enzymatic hydrolysate (LAH) (“assay buffer”). The highest concentration that is used starts from 1 μM in the human CRHR2b, whereas 100 μM starting concentration is used in the human CRHR1 assay. A one to three dilution of the test peptides is used in both assays.
The human Retinoblastoma cell line Y79 (ATCC #HTB-18), which expresses endogenous human CRHR1, is used in the human CRHR1 assay. The cells are grown in RPMI 1640 (Hyclone, #SH30255) containing 20% fetal bovine serum and 10 mM HEPES, in suspension culture. Cells are centrifuged to remove the culture media and washed once in HBSS supplemented with 20 mM HEPES. The cells are resuspended in the assay buffer and 20,000 cells are used per treatment in the human CRHR1 assay.
The cells are dispensed into Costar 96-well black polystyrene half area EIA/RIA plates (Corning Incorporated, Corning, N.Y.) followed by the addition of the diluted peptides, each at a volume of 20 μL. The agonist induced cAMP levels are detected using a HTRF cAMP Dynamic 2 kit (CisBio, Bedford, Mass.). After incubation at 37° C. for 30 min, the assay is stopped by cell lysis via the addition of 20 μL of d2-labeled cAMP and followed by 20 μL of cryptate-labeled anti-cAMP antibody, as described by the manufacturer. Cellular cAMP (as a result of agonist stimulation) competes with the d2-labeled cAMP for binding to the antibody. HTRF detection is performed on an Envision plate reader (Perkin Elmer Life and Analytical Sciences, Waltham, Mass.) by measuring ratiometric emission at 620 and 665 nm after excitation at 320 nm.
The data are converted to picomoles of cAMP using a standard curve obtained from the same assay performed with varying concentrations of unlabeled cAMP. Percent of the maximum activation of the cells is calculated using converted picomole cAMP data by comparing to the amount of cAMP produced by 1 μM human UCN2 for the human CRHR2b or 1 μM human UCN1 for the human CRHR1 assay. The data are analyzed using a Curve Fitting Tool to calculate ED50. Numeric values shown below in Table 1 represent the mean of multiple runs (number of runs shown in parentheses) following the mean value±SEM.

[2] = biological target: T2, human CRHR2b (Homo sapiens, UniProt Q13324); assay: human CRHR2b cell-based cAMP assay; settings: cAMP assay, CHO cells transfected with human CRHR2b; mean ± SEM of runs; read-out: hCRHR2b Average EC50
T2 construct: expressed in transfected cells; host or cells: Chinese Hamster Ovary (CHO) cells, transient transfection
T2 sequence (Q13324 1-438 isoform Q13324-2): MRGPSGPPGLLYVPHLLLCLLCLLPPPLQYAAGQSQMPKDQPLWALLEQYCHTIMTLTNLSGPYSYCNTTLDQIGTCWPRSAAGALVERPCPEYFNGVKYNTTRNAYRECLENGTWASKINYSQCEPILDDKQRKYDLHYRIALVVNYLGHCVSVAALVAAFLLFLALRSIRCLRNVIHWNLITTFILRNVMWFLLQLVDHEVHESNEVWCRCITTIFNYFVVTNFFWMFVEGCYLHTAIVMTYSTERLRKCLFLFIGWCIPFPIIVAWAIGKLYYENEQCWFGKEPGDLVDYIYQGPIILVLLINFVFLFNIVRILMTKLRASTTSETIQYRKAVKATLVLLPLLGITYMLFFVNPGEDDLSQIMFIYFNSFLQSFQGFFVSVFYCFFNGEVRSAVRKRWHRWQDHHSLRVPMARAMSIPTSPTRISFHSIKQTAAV
In short: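 ED50 values are means ± SEM over several runs, curve-fitted from cAMP in pmol, calibrated against unlabeled-cAMP standards. Detection was HTRF competition, ratio 665/620 nm, after 30 min agonist exposure at 37 °C.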

## CC[C@H](C)[C@H](NC)C(=O)N[C@H](C(=O)N[C@@H](CC(C)C)C(=O)N[C@@H](CO)C(=O)N[C@@H](CC(C)C)C(=O)N[C@@H](CC(=O)O)C(=O)N[C@H](C(=O)N1CCC[C@H]1C(=O)N[C@H](C(=O)NCC(=O)N[C@@H](CC(C)C)C(=O)N[C@@H](CC(C)C)C(=O)N[C@@H](CCC(N)=O)C(=O)N[C@H](C(=O)N[C@@H](CC(C)C)C(=O)N[C@@H](CC(C)C)C(=O)N[C@@H](CCC(=O)O)C(=O)N[C@@H](CCC(N)=O)C(=O)N[C@@H](CCC(=O)O)C(=O)N[C@@H](CCCCN)C(=O)N[C@@H](CCC(N)=O)C(=O)N[C@@H](CCC(=O)O)C(=O)N[C@@H](CCCCN)C(=O)N[C@@H](CCC(=O)O)C(=O)N[C@@H](CCCCN)C(=O)N[C@@H](CCC(N)=O)C(=O)N[C@@H](CCC(N)=O)C(=O)N[C@@H](C)C(=O)N[C@@H](CCCCNC(=O)COCCOCCNC(=O)COCCOCCNC(=O)CC[C@H](NC(=O)CC[C@H](NC(=O)CCCCCCCCCCCCCCCCCCC(=O)O)C(=O)O)C(=O)O)C(=O)N[C@H](C(=O)N[C@@H](CC(N)=O)C(=O)N[C@@H](C)C(=O)N[C@@H](CCC(=O)O)C(=O)N[C@H](C(=O)N[C@@H](CC(C)C)C(=O)N[C@@H](C)C(=O)N[C@@H](CCC(N)=O)C(=O)N[C@H](C(N)=O)C(C)C)[C@@H](C)CC)[C@@H](C)O)[C@@H](C)CC)[C@@H](C)CC)C(C)C)C(C)C [Example 6] (H-[NMeI]VLSLDVPIGLLQILLEQEKQEKEKQQAK([AEEA-AEEA-γGlu-γGlu-C20 diacid])TNAEILAQV-NH2)
[1]
  EC50: > 100000 nM
[2]
  EC50: 2.5 ± 1.06 nM
